Legend:
Assay in all cases: Growth suppression, cancer cell line panel (resazurin)
Format in all cases: cell-based
BT20 = BT20 breast, 48 hours
Procedure: (§1) Breast, colon, ovarian, cervical, liver and lung carcinoma cell lines were grown in DMEM supplemented with 10% FBS, and antibiotics were cultured at 37 °C and 5% CO2. Osteosarcoma, melanoma, lymphoma, neuroblastoma and leukemia cell lines were cultured in RPMI 1640 with 10% FBS and antibiotics. An oxygen concentration of 0.3% was obtained by flushing a sealed box containing the cells with premixed gas composed of 95% nitrogen (N2) and 5% CO2 (AGA AB, Sweden). To obtain an oxygen concentration of 0.05%, the cells were flushed with the premixed gas continuously throughout the experiment.
(§2) Cells were grown in 96-well plates at a density of 3000 cells per well with or without doxycycline and treated with compounds. After 48 hours of incubation the proliferative cell reagent resazurin (Thermo Fisher Scientific) was added to the cells. The degree of resazurin reduction, which reflects cell viability, was measured by microplate reader by monitoring the absorbance at 570 nm and 600 nm, according to the manufacturer.
(§3) Growth suppression by the soluble compound 1d*HCl in a panel of 27 cancer cell lines. The panel of cancer cell lines, including carcinomas of breast (MDA-MB231, SKBR3, T47D, MCF7; BT549, BT20, MDA-MB468), colon, (SW480, RKO, HT29, HCT116) ovarian (OVCAR3, OVCAR4, OVCAR8), cervical (SW756, C33A), liver (HEPG2) and lung (H23), osteosarcoma (SJSA and U2OS), melanoma (ME180), lymphoma (Raji, HDLM2), neuroblastoma (SKNAS, IMR32) and leukemia (NB4, K562) were treated with increasing concentrations of 1d*HCl: 0.4; 0.8; 1.6; 3.2; 6.4; 12.8; 25.6 µM in 96-well plates. After 48 hours of incubation the proliferative cell reagent resazurin was added to the cells. The degree of resazurin reduction, which reflects cell viability, was measured by microplate reader by monitoring the absorbance at 570 nm and 600 nm, according to the manufacturer, and the IC50 and AUC (area under curve) were determined (Table 2). As could be seen in Table 2, 1d*HCl suppressed the growth of cancer cell lines of a different origin, including carcinomas, osteosarcomas, melanoma, lymphoma, leukemia and neuroblastoma. These findings open up a possibility of the application of the present invention in anti-cancer therapy in a broad range of tumor types. Table 2: a) Breast cancer

BT549 = BT549 breast, 48 hours
Procedure: as §1, §2, §3

C33A = C33A cervical, 48 hours
Procedure: as §1, §2, §3

H23 = H23 lung, 48 hours
Procedure: as §1, §2, §3

HCT116 = HCT116 colon, 48 hours
Procedure: as §1, §2, §3

HDLM2 = HDLM2 lymphoma, 48 hours
Procedure: as §1, §2, §3

HT29 = HT29 colon, 48 hours
Procedure: as §1, §2, §3

HepG2 = HepG2 liver, 48 hours
Procedure: as §1, §2, §3

K562 = K562 leukemia, 48 hours
Procedure: as §1, §2, §3

MDA- MB231 = settings: MDA-MB231 breast, 48 hours
Procedure: as §1, §2, §3

MDA-MB-468 = MDA-MB-468 breast, 48 hours
Procedure: as §1, §2, §3

ME180 = ME180 (table section Cervical), 48 hours
Procedure: as §1, §2, §3

NB4 = NB4 leukemia, 48 hours
Procedure: as §1, §2, §3

OVCAR3 = OVCAR3 ovarian, 48 hours
Procedure: as §1, §2, §3

OVCAR4 = OVCAR4 ovarian, 48 hours
Procedure: as §1, §2, §3

Raji = Raji lymphoma, 48 hours
Procedure: as §1, §2, §3

SJSA = SJSA osteosarcoma, 48 hours
Procedure: as §1, §2, §3

SKNAS = SKNAS neuroblastoma, 48 hours
Procedure: as §1, §2, §3

SW480 = SW480 colon, 48 hours
Procedure: as §1, §2, §3

SW756 = SW756 cervical, 48 hours
Procedure: as §1, §2, §3

T47D = T47D breast, 48 hours
Procedure: as §1, §2, §3

U2OS = U2OS osteosarcoma, 48 hours
Procedure: as §1, §2, §3

[1] = Homo sapiens, resazurin, read-out: ICso

Cl.N#Cc1c(-c2cccnc2)[n+]([O-])c2cc(F)c(N3CCOCC3)cc2[n+]1[O-] [1d*HCl, 6-Fluoro-7-(morpholin-4-yl)-3-(pyridin-3-yl)quinoxaline-2-carbonitrile-1,4-dioxide hydrochloride]
AUC (BT20; area under curve, 0.4-25.6 µM): 9,64 | IC50 (BT20; Homo sapiens, BT-20, resazurin): 5910 nM | AUC (BT549; area under curve, 0.4-25.6 µM): 2,52 | IC50 (BT549; Homo sapiens, BT-549, resazurin): 1700 nM | IC50 (C33A; resazurin): variable | AUC (C33A; area under curve, 0.4-25.6 µM): 21 | AUC (H23; area under curve, 0.4-25.6 µM): 5,38 | IC50 (H23; Homo sapiens, NCI-H23, resazurin, read-out: ICso): 3540 nM | AUC (HCT116; area under curve, 0.4-25.6 µM): 1,37 | IC50 (HCT116; Homo sapiens, HCT-116, resazurin): 860 nM | AUC (HDLM2; area under curve, 0.4-25.6 µM): 4,68 | IC50 (HDLM2; Homo sapiens, HDLM-2, resazurin): 1270 nM | AUC (HT29; area under curve, 0.4-25.6 µM): 4,77 | IC50 (HT29; Homo sapiens, HT-29, resazurin): 3500 nM | AUC (HepG2; area under curve, 0.4-25.6 µM): 4,54 | IC50 (HepG2; [1]): 3590 nM | IC50 (K562; Homo sapiens, resazurin): 2950 nM | AUC (K562; area under curve, 0.4-25.6 µM): 4,39 | IC50 (MDA- MB231; Homo sapiens, MDA-MB-231, resazurin): 780 nM | AUC (MDA- MB231; area under curve, 0.4-25.6 µM): 1,21 | IC50 (MDA-MB-468; Homo sapiens, resazurin): 2780 nM | AUC (MDA-MB-468; area under curve, 0.4-25.6 µM): 4,04 | IC50 (ME180; Homo sapiens, ME-180, resazurin): 2230 nM | AUC (ME180; area under curve, 0.4-25.6 µM): 2,72 | IC50 (NB4; resazurin): variable | AUC (NB4; area under curve, 0.4-25.6 µM): 25,4 | IC50 (OVCAR3; Homo sapiens, OVCAR-3, resazurin): 2640 nM | AUC (OVCAR3; area under curve, 0.4-25.6 µM): 4,813 | IC50 (OVCAR4; Homo sapiens, OVCAR-4, resazurin): 1570 nM | AUC (OVCAR4; area under curve, 0.4-25.6 µM): 3,7 | IC50 (Raji; Homo sapiens, resazurin): 1220 nM | AUC (Raji; area under curve, 0.4-25.6 µM): 2,93 | IC50 (SJSA; resazurin, read-out: ICso): 4080 nM | AUC (SJSA; area under curve, 0.4-25.6 µM): 4,96 | IC50 (SKNAS; Homo sapiens, SK-N-AS, resazurin, read-out: ICso): 4680 nM | AUC (SKNAS; area under curve, 0.4-25.6 µM): 7,73 | IC50 (SW480; Homo sapiens, resazurin): 3720 nM | AUC (SW480; area under curve, 0.4-25.6 µM): 4,78 | IC50 (SW756; Homo sapiens, resazurin): 1540 nM | AUC (SW756; area under curve, 0.4-25.6 µM): 2,84 | IC50 (T47D; Homo sapiens, resazurin): 2740 nM | AUC (T47D; area under curve, 0.4-25.6 µM): 3,93 | IC50 (U2OS; [1]): 1040 nM | AUC (U2OS; area under curve, 0.4-25.6 µM): 2,10

Source: patent EP4201929A1, “QUINOXALINE THIOREDOXIN REDUCTASE INHIBITORS” (geneXplain GmbH, priority 2021, dated 2023)
